The test system of experiment [1] is osteoblasts. The experiment is described as follows: Alamar Blue mouse osteoblast assay. Format: cell-based. The note with it: 72 hours exposure, read-out: IC50 against osteoblasts (survival). As for the experimental part:
Osteoblasts were isolated as described above and plated at 10^4 cells/well in 96-well plates in 100 μL of αMEM supplemented with 10% FCS and antibiotics. Test compounds were added after 24 hours and left for 72 hours. Cell viability was assessed using the Alamar Blue assay as described for J774 macrophages. Alamar Blue (Biosource International) was added undiluted to each well (1:10 v/v, 10 μL). The plate was incubated at 37° C. for 3 to 4 hours and the fluorescence was measured at 570 nm, with a 25 nm bandwidth.
Osteoblast Isolation. Briefly, osteoblasts were isolated from the calvarial bones of 2-day-old mice by sequential collagenase digestion (type I collagenase, Sigma) and cultured in αMEM supplemented with 10% FCS (foetal calf serum) and penicillin and streptomycin at 37° C. in 5% CO2.
More specifically, osteoblasts were obtained from a collagenase digestion of the calvaria (skull bones) of 2-3 day old neo-natal MF1 mice. At this stage in their development these are soft and easily removed. The calvaria from 5-6 mice were carefully dissected and washed in HBSS (Hank's balanced saline solution). The calvaria were placed in a 15 mL tube and shaken at 37° C. in 4 mL collagenase (10 mg/ml) for 10 minutes. This removes the excess unwanted tissue. The liquid was disposed of and a further 4 mL collagenase (10 mg/ml) added to the tube. The calvaria were then digested for a further 30 minutes. […]
(In general: Alamar Blue is a resazurin reagent that responds to reducing activity.)

The subject of experiment [2] is ovariectomy induced bone loss. Nature of the experiment: Ovariectomy induced bone loss in mice, trabecular bone mineral density by pQCT. The experiment is classed as in vivo. The note with it: OVX female C57/BL6 mice, 20 mg/kg by gavage in olive oil, 21 days, tibial metaphysis. As for the experimental part:
Animals. Female 9 week-old C57/BL6 mice. Animals were housed in a designated animal facility and routinely maintained on a 12 h:12 h light:dark cycle and given ad libitum access to food and water. Ovariectomy induced bone loss. Bilateral ovariectomy (Ovx) was performed under general anaesthesia. Sham ovariectomy (Sham) was similarly performed but with externalisation and replacement of the ovaries. Animals were given a gavage of (a) candidate compound (e.g., 20 mg/kg) in vehicle (olive oil), or (b) vehicle (olive oil). After 21 days, the animals were killed, and the tibial bones were dissected and used for bone mineral density measurements. Bone Mineral Measurements. Measurements of bone mineral density (BMD) at the left proximal tibial metaphysis were determined by peripheral quantitative computed tomography (pQCT) using an XCT Research M bone densitometer with a voxel size of 70 μm and analysis software version 5.1.4. (Stratec Medizintechnik, Pforzheim, Germany). Daily quality assurance measurements were performed using a plexi-coated PVC-fluorinated hydrocarbon phantom according to the manufacturer's instructions.

For experiment [3], the system named is J774 macrophages. The experiment is described as follows: Alamar Blue macrophage J774 viability assay. The note with it: Mus musculus, 72 hours exposure, J774 macrophage cell line, read-out: IC50 against J774 macrophages (viability). The experiment is classed as cell-based. As for the experimental part: Initial screening of candidate compounds was performed using viability assays, on cultures of the macrophage cell line J774, which have been used before as a model system for osteoclast survival (see, e.g., Luckman et al., 1998). The assay is based on the survival of the J774 macrophage cell line; macrophages are closely related to osteoclasts, and contain similar high levels of esterase activity.
J774 cells were plated at 10^4 cells per well in 150 μL αMEM (α Modified Eagle Medium) in 96-well plates and grown overnight. The next day, compounds were added to the cultures, and culture was continued for another 72 hours. At the end of the culture period cell survival was determined using an Alamar Blue assay as previously described (see, e.g., Nociari et al., 1998).
Alamar Blue is an oxidation-reduction sensitive indicator. The dye itself is in the oxidised state, which is blue and non-fluorescent. […] Thus the transformation from oxidised form to reduced form can be measured by fluorimetric or colourimetric means. For fluorescence measurements, 530-560 nm excitation and 590 nm emission wavelengths are typically used. For colourimetric measurements, absorbance is measured at 570 nm (reduced form) and 600 nm (oxidised form) and a simple calculation performed to determine the relative quantities of the two species. […]

Each structure is given as a SMILES string.

`O=C(CCCCCO)c1ccc(-c2ccccc2)cc1` [ABD-68, 6-Hydroxy-1-(4-biphenyl)hexan-1-one]: the results for the 50% inhibitory concentration (IC50) in experiment [1] and in experiment [3] were > 100 µM and < 20 µM, respectively. For the same molecule, the “reversal of ovariectomy-induced bone loss (percent change in trabecular BMD)” value in experiment [2] is “very effective at reversing the bone loss”.
As for `OCCCCCC(O)c1ccc(-c2ccccc2)cc1` (centres unmarked) [ABD-150, 1-Biphenyl-4-yl-hexan-1,6-diol], the IC50 in experiment [1] was > 100 µM; in experiment [3], < 20 µM.

Usually IC50 stands for the concentration at which inhibition is half-maximal.

For the origin of these results see patent US7572825B2, “Ketones and reduced ketones as therapeutic agents for the treatment of bone conditions” (The University Court of the University of Aberdeen, priority 2003, dated 2009).
